We go through four compounds from PubChem BioAssay AID1259407 (Chemical Carcinogenesis Research Information System (CCRIS), 2018).

For this data set, the system named is CCRIS mutagenicity, Ames/micronucleus/aberration tests. Kind of data set: CCRIS mutagenicity studies.
[1] abbreviates: Test System: AMES SALMONELLA TYPHIMURIUM, Strain/Indicator: TA98, Metabolic Activation: NONE, Method: PREINCUBATION
[2] abbreviates: Test System: AMES SALMONELLA TYPHIMURIUM, Strain/Indicator: TA100, Metabolic Activation: NONE, Method: PREINCUBATION
[3] abbreviates: Test System: AMES SALMONELLA TYPHIMURIUM, Strain/Indicator: TA1535, Metabolic Activation: NONE, Method: PREINCUBATION
Setting [4] is: Test System: AMES SALMONELLA TYPHIMURIUM, Strain/Indicator: TA1537, Metabolic Activation: NONE, Method: PREINCUBATION

Calls of active or inactive are those of the source. No rule for the calls is given here.

`CC(C#N)CCC#N` (stereo unspecified): the mutagenic call was “inactive; negative” (Test System: AMES SALMONELLA TYPHIMURIUM, Strain/Indicator: TA97, Metabolic Activation: HAMSTER, LIVER, S-9, AROCLOR 1254 (5, 10 OR 30%), Method: PREINCUBATION); “inactive; negative” (Test System: AMES SALMONELLA TYPHIMURIUM, Strain/Indicator: TA97, Metabolic Activation: NONE, Method: PREINCUBATION); “inactive; negative” (Test System: AMES SALMONELLA TYPHIMURIUM, Strain/Indicator: TA97, Metabolic Activation: RAT, LIVER, S-9, AROCLOR 1254 (5, 1O OR 30%), Method: PREINCUBATION); “inactive; negative” (Test System: AMES SALMONELLA TYPHIMURIUM, Strain/Indicator: TA98, Metabolic Activation: HAMSTER, LIVER, S-9, AROCLOR 1254 (10%), Method: PREINCUBATION); “inactive; negative” under setting [1]; “inactive; negative” (Test System: AMES SALMONELLA TYPHIMURIUM, Strain/Indicator: TA98, Metabolic Activation: RAT, LIVER, S-9, AROCLOR 1254 (10%), Method: PREINCUBATION). In addition, the mutagenic call (Test System: AMES SALMONELLA TYPHIMURIUM, Strain/Indicator: TA100, Metabolic Activation: HAMSTER, LIVER, S-9, AROCLOR 1254 (10%), Method: PREINCUBATION) is “inactive; negative”; the mutagenic call under setting [2] is “inactive; negative”; the mutagenic call (Test System: AMES SALMONELLA TYPHIMURIUM, Strain/Indicator: TA100, Metabolic Activation: RAT, LIVER, S-9, AROCLOR 1254 (10%), Method: PREINCUBATION) is “inactive; negative”; the mutagenic call (Test System: AMES SALMONELLA TYPHIMURIUM, Strain/Indicator: TA1535, Metabolic Activation: HAMSTER, LIVER, S-9, AROCLOR 1254 (10%), Method: PREINCUBATION) was “inactive; negative”; the mutagenic call under setting [3] is “inactive; negative”; the mutagenic call (Test System: AMES SALMONELLA TYPHIMURIUM, Strain/Indicator: TA1535, Metabolic Activation: RAT, LIVER, S-9, AROCLOR 1254 (10%), Method: PREINCUBATION) was “inactive; negative”. For the same compound, the mutagenic call reads like this: (Test System: AMES SALMONELLA TYPHIMURIUM, Strain/Indicator: TA1537, Metabolic Activation: HAMSTER, LIVER, S-9, AROCLOR 1254 (10 OR 30%), Method: PREINCUBATION) “inactive; negative”; under setting [4], “inactive; negative”; (Test System: AMES SALMONELLA TYPHIMURIUM, Strain/Indicator: TA1537, Metabolic Activation: RAT, LIVER, S-9, AROCLOR 1254 (10 OR 30%), Method: PREINCUBATION) “inactive; negative”.

Take `c1ccc2c(c1)-c1cc3ccccc3c3cc4ccccc4c-2c13`: the mutagenic call is “active; positive” (Test System: AMES SALMONELLA TYPHIMURIUM, Strain/Indicator: TA100, Metabolic Activation: MOUSE, LIVER, S-9, 3-METHYLCHOLANTHRENE, Method: STANDARD PLATE); “active; positive” (Test System: AMES SALMONELLA TYPHIMURIUM, Strain/Indicator: TA100, Metabolic Activation: RAT, LIVER, S-9, 3-METHYLCHOLANTHRENE, Method: STANDARD PLATE); “active; positive” (Test System: HUMAN H1A1V2 CELLS, Strain/Indicator: TK LOCUS, Metabolic Activation: NONE, Method: SUSPENSION/PLATE).

On to `CN(Cc1ccc(C(=O)O)cc1)N=O`, for which the mutagenic call is, setting by setting: (Test System: AMES SALMONELLA TYPHIMURIUM, Strain/Indicator: TA1535, Metabolic Activation: HAMSTER, LIVER, S-9, AROCLOR 1254, Method: STANDARD PLATE) “inactive; negative”; (Test System: AMES SALMONELLA TYPHIMURIUM, Strain/Indicator: TA1535, Metabolic Activation: NONE, Method: STANDARD PLATE) “inactive; negative”.

`O=C(Br)CBr`: the mutagenic call reads like this: (End Point: IN VITRO CHROMOSOMAL ABERRATIONS, Test System: CHL CELLS, Metabolic Activation: RAT, LIVER, S-9, SODIUM PHENOBARBITAL AND 5,6-BENZOFLAVONE) “inactive; negative; authors report equivocal results for structural changes at 0.02 mg/ml”; under setting [1], “inactive; negative”; (Test System: AMES SALMONELLA TYPHIMURIUM, Strain/Indicator: TA98, Metabolic Activation: RAT, LIVER, S-9, PHENOBARBITAL AND BETA-NAPHTHOFLAVONE, Method: PREINCUBATION) “inactive; negative”; under setting [2], “inactive; negative”; (Test System: AMES SALMONELLA TYPHIMURIUM, Strain/Indicator: TA100, Metabolic Activation: RAT, LIVER, S-9, PHENOBARBITAL AND BETA-NAPHTHOFLAVONE, Method: PREINCUBATION) “inactive; negative”; (Test System: AMES SALMONELLA TYPHIMURIUM, Strain/Indicator: TA102, Metabolic Activation: NONE, Method: PREINCUBATION) “inactive; negative”. In addition, the mutagenic call reads like this: (Test System: AMES SALMONELLA TYPHIMURIUM, Strain/Indicator: TA102, Metabolic Activation: RAT, LIVER, S-9, PHENOBARBITAL AND BETA-NAPHTHOFLAVONE, Method: PREINCUBATION) “inactive; negative”; (Test System: AMES SALMONELLA TYPHIMURIUM, Strain/Indicator: TA104, Metabolic Activation: NONE, Method: PREINCUBATION) “active; positive”; (Test System: AMES SALMONELLA TYPHIMURIUM, Strain/Indicator: TA104, Metabolic Activation: RAT, LIVER, S-9, PHENOBARBITAL AND BETA-NAPHTHOFLAVONE, Method: PREINCUBATION) “active; positive”; under setting [3], “inactive; negative”; (Test System: AMES SALMONELLA TYPHIMURIUM, Strain/Indicator: TA1535, Metabolic Activation: RAT, LIVER, S-9, PHENOBARBITAL AND BETA-NAPHTHOFLAVONE, Method: PREINCUBATION) “inactive; negative”; under setting [4], “inactive; negative”. Besides, the mutagenic call runs as follows: (Test System: AMES SALMONELLA TYPHIMURIUM, Strain/Indicator: TA1537, Metabolic Activation: RAT, LIVER, S-9, PHENOBARBITAL AND BETA-NAPHTHOFLAVONE, Method: PREINCUBATION) “inactive; negative”; (Test System: E. COLI, Strain/Indicator: WP2UVRA/PKM101, Metabolic Activation: RAT, LIVER, S-9, PHENOBARBITAL AND BETA-NAPHTHOFLAVONE, Method: PREINCUBATION) “active; positive”; (Test System: E. COLI, Strain/Indicator: WP2UVRA, Metabolic Activation: NONE, Method: PREINCUBATION) “inactive; negative”; (Test System: E. COLI, Strain/Indicator: WP2UVRA, Metabolic Activation: RAT, LIVER, S-9, PHENOBARBITAL AND BETA-NAPHTHOFLAVONE, Method: PREINCUBATION) “inactive; negative”.
